The source of these data is US20070202047A1, “Polyamine-substituted ligands for use as contrast agents” (priority 2006, published 2007).

“And” between values parts separate entries of the source, which are not always exact repeats. Equal values may be shown once.

Data set [1] deals with MH3924A Morris hepatoma cells. As to the kind of experiment: Intracellular uptake of gadolinium complexes (ICP-MS). It is filed as cell-based, rat. The conditions noted are these: MH3924A cells; for intracellular uptake of gadolinium complex: 24-h incubation. The procedure:
Cell culture. B16 melanoma cells (mouse) and MH3924A Morris hepatoma cells (rat) were obtained from the German Cancer Research Center (DKFZ) tumor bank and grown at 37° C. as stock cultures in RPMI 1640 supplemented with 10% fetal calf serum and 1% glutamine as standard medium under a 5% CO2 atmosphere (all components: Pan Biotech GmbH, Aidenbach, Germany). For contrast agent uptake studies 10^6 cells were inoculated into 25 cm^2 culture flasks (BD Biosciences, Bedford, USA) and grown for 24 h in 10 mL of the standard culture medium. Cells were then incubated for an additional 24 h (1 h for temperature dependence studies) with fresh medium containing 0, 1, 2.5, 5 or 10 μM of the selected gadolinium complex (three replicate flasks for each incubation). Afterwards the medium was removed, cells were trypsinated, washed twice, resuspended in culture medium and counted (typical yields: 3.5-6 million cells). For comparison 2.5×10^5 human melanocytes (Promo Cell, Heidelberg, Germany) were incubated for 24 h with melanocyte growth medium (Promo Cell, Heidelberg, Germany) containing 0, 1, 2.5, 5 or 10 μM of the selected gadolinium complex (two replicate flasks for each incubation). The work up procedure was as described above typically yielding 2.5×10^5 cells. Cultured human hepatocytes (Cytonet GmbH, Weinheim, Germany) embedded in a collagen matrix in a 12 well microtiter plate, with 6×10^5 viable cells per well were incubated for 24 h in hepatocyte growth medium (Cytonet GmbH, Weinheim, Germany) containing the same concentration series of selected gadolinium complexes. Afterwards the medium was removed, cells were separated using collagenase (Roche Diagnostics, Mannheim, Germany). After digestion the cells were washed twice with PBS, resuspended in culture medium and counted (typical yields: 6×10^5 cells per tube). The intracellular gadolinium content was determined by ICP-MS as described below.
ICP-MS. Samples containing the above mentioned number of harvested cells were digested with 50% concentrated HNO3 (Superselect; Merck, Darmstadt, Germany) under microwave heating with a Mars 5 apparatus (CEM GmbH, Kamp-Lintfort, Germany). To each sample 100 μL of an aqueous solution of rhodium chloride (1 μg/mL) were added so that Rh-103 could be used as an internal quantification standard. Gd-160 measurements were performed with the ICP-MS instrument mentioned above. The gadolinium concentrations were determined using standard curves created prior to cell analyses. For each uptake incubation condition triplicate cell samples were analyzed, and Gd content for each sample was recorded as the mean of two MS determinations.
Intracellular Uptake of Gadolinium Complexes. B16 melanoma and MH3924A hepatoma cells as well as human melanocytes and hepatocytes were incubated for 24 h in the presence of the gadolinium complexes shown in FIG. 1, using concentrations in the range of 1-10 μM. Incubations with the unsubstituted [Gd(DTPA)(H2O)]^2−complex (Magnevist®) served as controls. Following cell harvest and hydrolysis, inductively coupled plasma mass spectrometry (ICP-MS) with direct detection of gadolinium was used to quantitate complex uptake (triplicate cultures for each incubation).
Cell Uptake Studies. A493 (human kidney), B16 melanoma cells (mouse), HeLa (human cervix), MCF-7 (human breats), MH3924A (Morris hepatoma) cells (rat) and 3T3 NIH (mouse fibroblasts) were obtained from the DKFZ tumor cell collection. 3×10^6 cells of each cell type were grown for 24 hours in culture flasks. Afterwards they were incubated for 1 hour in 10 mL culture media containing 0, 10, 50 and 100 μM of Gd-2.2. Gd-3.2 or Gd-4.2. Afterwards the medium was removed, the cells were trypsinated, washed twice, resuspended in culture medium and counted. The gadolinium uptake was determined in triplicate. […] cells were incubated with 0, 1, 2.5, 5 and 10 μM of the Gd-1.2. and Gd-5.2. for 24 h. […]

A short description of data set [2]: Relaxivity measurements in PBS solution. It is filed as physicochemical. Conditions: 37° C.; for longitudinal relaxation rate R1(Gd): 250 MHz (5.4 T); for molar chemical shift Δδ(Gd): H2O signal relative to external HDO; for molar chemical shift Δδ(Gd) / molar relaxivity r1: 250 MHz; for molar relaxivity r1: PBS. As for the experimental part:
Relaxivity Measurements. A phosphate-buffered saline (PBS, pH 7.4) reference solution and solutions of the Gd complexes Gd-3.1. (60 mM), Gd-5.1. (60 mM), and Gd-6.1. […] Each capillary was then inserted into a standard 5-mm NMR tube containing D2O (99.96% D) for ^1H relaxation rate measurements at 250 MHz (5.4 T, Bruker AC-250 spectrometer) and 37° C. using the inversion-recovery method. The relaxation rates R1 were determined by a three-parameter nonlinear least-squares fit of the intensity data to the equation M(τ)=M0[1−2q exp(−R1τ)] with 8-11 τ values. The transverse relaxation rate R2 was estimated from the H2O signal linewidth Δν at half height (R2=πΔν). The standard error of estimate for R1 was <0.7% for all samples. The relaxivities were estimated as r1 [s^−1 mM^−1]=[R1(Gd)−R1(0)]/[Gd], where [Gd] is the concentration of Gd complex in the sample with relaxation rate R1(Gd), and R1(0) is the rate for the reference sample of PBS. Analogous calculations were made for r2 from R2.
For the ^1H relaxation rate measurements at 250 MHz (5.4 T, Bruker AC-250 spectrometer) and 37° C., sample temperature was regulated to better than ±0.1° C. using the variable temperature unit of the spectrometer. The solutions studied were placed in capillaries to reduce the sample volume and the resulting intensity of the H2O signal, thus avoiding the influences of radiation damping on the relaxation behavior. The D2O solution added to the 5-mm NMR tube provided a field/frequency lock signal and residual HDO as a reference signal. An inversion-recovery pulse sequence (RD-180°-τ-90°-acquisition) was executed with a composite 180° pulse of constant phase, four-step phase cycling of the 90° pulse (7.3 μs) for four transients, and 8-11 τ values. For each sample the list of τ values was chosen after determining the approximate τnull for the “null” point of the recovery curve by trial measurements, and the delay RD was set to at least 10τnull. The resulting spectra were phase and baseline corrected manually, and the H2O signal intensity was determined by the peak picking algorithm of the NMR software.
The relaxation rates R1 were determined by a three-parameter nonlinear least-squares fit of the intensity data to the equation M(τ)=M0[1−2q exp(−R1τ)], where q was an additional fitting parameter used to account for the quality of spin inversion. The theoretical value of q is 1.0, and the fitted values were in the range 0.92-0.95. The transverse relaxation rate R2 was estimated from the H2O signal linewidth Δν at half height (R2=πΔν), and the chemical shift Δδ(Gd) of the H2O signal from the capillary relative to the HDO signal from the external D2O was determined as an additional measure of the paramagnetism of the Gd complex. The standard error of estimate for R1was <0.7% for all samples. The relaxivities were estimated as r1 […]=[R1(Gd)−R1(0)]/[Gd], where [Gd] is the concentration of Gd complex in the sample with relaxation rate R1(Gd), and R1(0) is the rate for the reference sample of PBS. Analogous calculations were made for r2 from R2 and for Δδ(Gd).

Turning to `NCCN(CCN)C(=O)CN(CCN(CCN(CC(=O)[O-])CC(=O)N(CCN)CCN)CC(=O)[O-])CC(=O)[O-].[Gd+3]` [Gd-5.1], the “intracellular uptake of gadolinium complex” value (from here on “intracellular uptake”) in data set [1] (10 μM) came to 0.053±0.005 fmol/cell. Also, the “observed factor of decrease in uptake at 4° C. vs. 37° C.” value in data set [1] (1 h (FIG. 3A)) is listed as approximately 6.5. The “uptake over 1 h at 4° C.” value in data set [1] (1 h, 4° C., 10 μM) is reported as 0.00064±0.00004 fmol/cell. Also, in data set [1] (1 h, 37° C., 10 μM), the “uptake over 1 h at 37° C.” value amounted to 0.008±0.00041 fmol/cell. Also, the “longitudinal relaxation rate R1(Gd)” value in data set [2] (60 mM in PBS) is 137.9 ± 0.2 s⁻¹. Further, in data set [2], the “molar chemical shift Δδ(Gd)” value worked out at 0.045 ppm mM-^−1 and the “molar relaxivity r1” value stood at 2.3 s⁻¹ mM⁻¹.

As for `NCCCCN(CCCN)C(=O)CN(CCN(CCN(CC(=O)[O-])CC(=O)N(CCCN)CCCCN)CC(=O)[O-])CC(=O)[O-].[Gd+3]` [Gd-6.1], the “intracellular uptake” value in data set [1] (10 μM) is recorded as 0.108 fmol/cell. In data set [2] (30 mM in PBS), the “longitudinal relaxation rate R1(Gd)” value came out at 194.5 ± 0.9 s⁻¹. In data set [2], the “molar chemical shift Δδ(Gd)” value came to 0.161 ppm mM-^−1 and the “molar relaxivity r1” value was 6.5 s⁻¹ mM⁻¹.

`CCN(CC)CCNC(=O)CN(CCN(CCN(CC(=O)[O-])CC(=O)N(CCN)CCN)CC(=O)[O-])CC(=O)[O-].[Gd+3]` [Gd-3.1]: the “intracellular uptake” value in data set [1] (10 μM) is 0.175±0.0013 fmol/cell and 0.175 fmol/cell. The “longitudinal relaxation rate R1(Gd)” value in data set [2] (60 mM in PBS) was found to be 469 ± 2 s⁻¹. In addition, in data set [2], the “molar chemical shift Δδ(Gd)” value stood at 0.125 ppm mM-^−1 and the “molar relaxivity r1” value was 7.8 s⁻¹ mM⁻¹.
